{"source": "patent US20060088496A1", "about": "“Personal care compositions with salts of hydroxypropyl trialkylammonium substituted mono-saccharide” (Unilever Home & Personal Care USA, Division of Conopco, Inc., priority 2004, published 2006)", "system": "Porcine epidermis", "experiment": "moisturization efficacy test: weight change of porcine skin with relative humidity on an environmental microbalance", "conditions": "difference in percent weight change, treated minus untreated skin, 1% active material in water solution; for From 0 to 80 to 20% Relative Humidity: 90 minutes at 20% relative humidity after 80% (water retained); for From 0 through 80% Relative Humidity: 90 minutes at 80% relative humidity (water picked up)", "experimental": "This Example provides the results of moisturization efficacy tests. These tests involved evaluation on Porcine epidermis utilized as a human skin model. Equipment and protocol are outlined below. An environmental microbalance (Model MB-300W, VTI Corp., 2708 W 84th Street, Hialeah, Fla. 33016) was programmed to measure the change in weight of porcine skin as a function of relative humidity at a constant temperature and air flow. The porcine skin was evaluated before and after treatment with aqueous solutions of humectants to determine adsorption and retention of moisture. Sample preparation was done as follows: • Epidermal sections of porcine skin were cut to approximately 4 cm×1 cm. • The skin was washed in a 10% detergent solution and dried in a dessicator to a constant weight. This represents the Untreated material. • The skin was soaked in a 1% by weight aqueous solution of the test sample for 15 minutes, excess fluid was blotted off and the skin was dried to constant weight in a dessicator. This represents the Treated material. Sequence of conditions for the microbalance was as follows: • 30 minutes at 0% relative humidity. (Insures that sample is dry.) • 90 minutes at 80% relative humidity. […] (Determines amount of water retained.) The experiments were conducted as follows: • The weight of a piece of untreated skin was recorded continuously during the sequence. • The piece of untreated skin was treated with the test sample. • The weight of the treated piece of skin was recorded continuously during the sequence. • Data reduction consisted of calculating the percent weight change from the initial weight for the untreated and treated pieces of skin. The reported data was the difference between each treated piece and its corresponding untreated piece.", "data": [{"smiles": "OCC(O)CO", "note": "[Glycerin]", "values": [{"measurement": "From 0 to 80 to 20% Relative Humidity", "value": 0.10}, {"measurement": "From 0 through 80% Relative Humidity", "value": 0.21}]}, {"smiles": "C[N+](C)(C)CC(O)CCl.[Cl-]", "note": "(stereo not shown) [Quat ® 188, 3-chloro-2-hydroxypropyl trimethylammonium chloride]", "values": [{"measurement": "From 0 to 80 to 20% Relative Humidity", "value": 0.10}, {"measurement": "From 0 through 80% Relative Humidity", "value": 0.21}]}]}
